Laboratory results from ChEMBL document CHEMBL4651402, “Screening of ~5500 FDA-approved drugs and clinical candidates for anti-SARS-CoV-2 activity” (2021).

Tested on: SARS-CoV-2
Assay: microbe, parasite or virus in culture
Details: Severe acute respiratory syndrome coronavirus 2, Vero C1008, 48 h

Compound: CC12CCC(=O)C[C@@H]1CCC1C2CCC2(C)C1CCC2(C)O (some centres undefined)
- IC50: > 20 µM
- IC50 (read-out: pIC50 (converted)): > 20 µM

Compound: Cc1c(Nc2ncccc2C(=O)O)cccc1C(F)(F)F [FLUNIXIN]
- IC50: > 20 µM
- IC50 (read-out: pIC50 (converted)): > 20 µM

Compound: NC1CCN(c2c(F)cc3c(=O)c(C(=O)O)cn(C4CC4)c3c2Cl)C1 (centres undefined) [CLINAFLOXACIN]
- IC50: > 20 µM
- IC50 (read-out: pIC50 (converted)): > 20 µM

Compound: O=C(O)c1ccccc1Nc1cccc(C(F)(F)F)c1 [FLUFENAMIC ACID]
- IC50: > 20 µM
- IC50 (read-out: pIC50 (converted)): > 20 µM

Compound: CCC(NC(C)C)C(O)c1ccc(O)c2[nH]c(=O)ccc12 (centres undefined) [PROCATEROL]
- IC50: > 20 µM
- IC50 (read-out: pIC50 (converted)): > 20 µM

Compound: O=C(O)c1ccccc1Nc1cccc(OCc2ccc3ccccc3n2)c1 [SR-2640]
- IC50: > 20 µM
- IC50 (read-out: pIC50 (converted)): > 20 µM

Compound: CN1[C@@H]2CC[C@H]1C[C@@H](OC(=O)c1c[nH]c3ccccc13)C2 [TROPISETRON]
- IC50: > 20 µM
- IC50 (read-out: pIC50 (converted)): > 20 µM

Compound: Cc1nc2n(c(=O)c1CCN1CCC(c3noc4cc(F)ccc34)CC1)CCC[C@@H]2O
- IC50: > 20 µM
- IC50 (read-out: pIC50 (converted)): > 20 µM

Compound: CCc1[nH]c(=O)[nH]c1C(=O)c1ccncc1 [PIROXIMONE]
- IC50: > 20 µM
- IC50 (read-out: pIC50 (converted)): > 20 µM

Compound: O=C(O)c1cccnc1 [NIACIN]
- IC50: > 20 µM
- IC50 (read-out: pIC50 (converted)): > 20 µM

Compound: CCC(C)(C)/N=C(\NC#N)Nc1cccnc1
- IC50: > 20 µM
- IC50 (read-out: pIC50 (converted)): > 20 µM

Compound: CCCCC[C@H](O)CC[C@@H]1[C@H]2Cc3cccc(OCC(=O)O)c3C[C@H]2C[C@H]1O [TREPROSTINIL]
- IC50: > 20 µM
- IC50 (read-out: pIC50 (converted)): > 20 µM

Compound: C=C1/C(=C\C=C2/CCC[C@]3(C)[C@@H]([C@H](C)/C=C/[C@@H](O)C4CC4)CC[C@@H]23)C[C@@H](O)C[C@@H]1O [CALCIPOTRIENE]
- IC50: > 20 µM
- IC50 (read-out: pIC50 (converted)): > 20 µM

Compound: CCOC(=O)c1ccc(OCCC2CCN(c3ccc(C)nn3)CC2)cc1
- IC50: > 20 µM
- IC50 (read-out: pIC50 (converted)): > 20 µM

Compound: Cc1cc2c(cc1CC(=O)c1sccc1S(=O)(=O)Nc1onc(C)c1Cl)OCO2 [SITAXENTAN]
- IC50: > 20 µM
- IC50 (read-out: pIC50 (converted)): > 20 µM

Compound: CCCCCCCCCC1(C)OCC(COC(N)=O)O1 (centres undefined) [DIOXAMATE]
- IC50: > 20 µM
- IC50 (read-out: pIC50 (converted)): > 20 µM

Compound: Oc1ccc(Cl)c2cccnc12 [CLOXYQUIN]
- IC50: > 20 µM
- IC50 (read-out: pIC50 (converted)): > 20 µM

Compound: CN(C)CCSc1nc2ccccc2cc1-c1ccccc1
- IC50: > 20 µM
- IC50 (read-out: pIC50 (converted)): > 20 µM

Compound: CC(C)(O)CNc1nc(Nc2ccnc(C(F)(F)F)c2)nc(-c2cccc(C(F)(F)F)n2)n1 [ENASIDENIB]
- IC50: > 20 µM
- IC50 (read-out: pIC50 (converted)): > 20 µM

Compound: O=C(N[C@H]1CCS[C@H]2CCC[C@@H](C(=O)O)N2C1=O)[C@@H](S)Cc1ccccc1 [OMAPATRILAT]
- IC50: > 20 µM
- IC50 (read-out: pIC50 (converted)): > 20 µM

Compound: [2H]C([2H])(OC(=O)C(C)C)[C@@]1(CCl)O[C@@H](n2ccc(N)nc2=O)[C@H](F)[C@@H]1OC(=O)C(C)C
- IC50: > 20 µM
- IC50 (read-out: pIC50 (converted)): > 20 µM

Compound: COCCOC(=O)C1=C(C)NC(C)=C(C(=O)OC(C)C)C1c1cccc([N+](=O)[O-])c1 (centres undefined) [NIMODIPINE]
- IC50: > 20 µM
- IC50 (read-out: pIC50 (converted)): > 20 µM

Compound: O=C(O)CC/C=C\C[C@H]1CO[C@@H](c2ccccc2Cl)O[C@H]1c1ccccc1O
- IC50: > 20 µM
- IC50 (read-out: pIC50 (converted)): > 20 µM

Compound: NC(COP(=O)(O)O)C(=O)O (centres undefined)
- IC50: > 20 µM
- IC50 (read-out: pIC50 (converted)): > 20 µM

Compound: CCCCCCCCN=c1ccn(CCCCCCCCCCn2ccc(=NCCCCCCCC)cc2)cc1 [OCTENIDINE]
- IC50: > 20 µM
- IC50 (read-out: pIC50 (converted)): > 20 µM

Compound: Nc1nc(N)c2nc(-c3ccccc3)c(N)nc2n1
- IC50: > 20 µM
- IC50 (read-out: pIC50 (converted)): > 20 µM

Compound: CS(=O)(=O)c1ccc(C(=O)Nc2ccc(Cl)c(-c3ccccn3)c2)c(Cl)c1 [VISMODEGIB]
- IC50: > 20 µM
- IC50 (read-out: pIC50 (converted)): > 20 µM

Compound: CC(=O)OC[C@@]1(O)C[C@@]23CC[C@@H]4c5ccoc5CC[C@@]4(C)[C@@H]2CC[C@H]1C3
- IC50: > 20 µM
- IC50 (read-out: pIC50 (converted)): > 20 µM

Compound: N[C@@H](CSCCCO)C(=O)O [FUDOSTEINE]
- IC50: > 20 µM
- IC50 (read-out: pIC50 (converted)): > 20 µM

Compound: NS(=O)(=O)c1cc2c(cc1Cl)N=C(CSCc1ccccc1)NS2(=O)=O [BENZTHIAZIDE]
- IC50: > 20 µM
- IC50 (read-out: pIC50 (converted)): > 20 µM

Compound: CC(C)Nc1cccnc1N1CCN(C(=O)c2cc3cc(NS(C)(=O)=O)ccc3[nH]2)CC1 [DELAVIRDINE]
- IC50: > 20 µM
- IC50 (read-out: pIC50 (converted)): > 20 µM

Compound: OCC1CCC(n2cnc3c(O)ncnc32)O1 (centres undefined)
- IC50: > 20 µM
- IC50 (read-out: pIC50 (converted)): > 20 µM

Compound: O=C(Nc1nc2cccc(-c3ccc(CN4CCS(=O)(=O)CC4)cc3)n2n1)C1CC1 [FILGOTINIB]
- IC50: > 20 µM
- IC50 (read-out: pIC50 (converted)): > 20 µM

Compound: CN1CC[C@]23c4c5ccc(O)c4O[C@H]2C(=O)C=C[C@@]3(O)C1C5
- IC50: > 20 µM
- IC50 (read-out: pIC50 (converted)): > 20 µM

Compound: CN(C)CCOc1ccccc1Cc1ccccc1 [PHENYLTOLOXAMINE]
- IC50: > 20 µM
- IC50 (read-out: pIC50 (converted)): > 20 µM

Compound: O=c1cc(-c2ccc(O)c(O)c2)oc2cc(O)cc(O)c12 [LUTEOLIN]
- IC50: > 20 µM
- IC50 (read-out: pIC50 (converted)): > 20 µM

Compound: CCC(C/C=C/c1ccccc1)(c1ccccc1)N(C)CC1CC1 (centres undefined) [IGMESINE]
- IC50: > 20 µM
- IC50 (read-out: pIC50 (converted)): > 20 µM
